From BindingDB's records for doi:10.1021/jm00028a001 (University of Pennsylvania, 1994)
pIC50: −log10 of the molar value.

Biological target: T1, Dimer of Gag-Pol polyprotein [489-587] (Human immunodeficiency virus 1, UniProt P12497)
T1 construct: 489-587
Test: Protease Inhibition Assay
Settings: pH 5.5; 30 °C
Method: Sensitivity of HIV-1 protease activity to protease inhibitors was determined by a peptide substrate cleavage assay. Protease products were analyzed on a reverse-phase high-pressure liquid chromatograph.

Row | SMILES | pIC50
1 | CCC(C)[C@@H]1NC(=O)[C@@H](NC[C@@H](O)[C@H](Cc2ccc(O)cc2)NC(=O)[C@H](C(C)C)N2CCCC2=O)Cc2ccc(cc2)OCCCNC1=O (stereo partly drawn) [(2S)-N-[(2S,3R)-4-{[(8S,11S)-8-[(2R)-butan-2-yl]-7,10-dioxo-2-oxa-6,9-diazabicyclo[11.2.2]heptadeca-1(15),13,16-trien-11-yl]amino}-3-hydroxy-1-(4-hydroxyphenyl)butan-2-yl]-3-methyl-2-(2-oxopyrrolidin-1-yl)butanamide] | 8.00
2 | CC(C)C[C@@]1(C2C=N[C@@](Cc3ccccc3)(C[C@H](O)[C@H](Cc3ccccc3)NC(=O)O[C@@H]3CCOC3)C2=O)N=CC([C@@H](Cc2ccccc2)C(N)=O)C1=O (stereo partly drawn) [(3R)-oxolan-3-yl N-[(2S,3S)-4-[(2S)-2-benzyl-4-[(2S)-4-[(1R)-1-carbamoyl-2-phenylethyl]-2-(2-methylpropyl)-3-oxo-2,3-dihydro-1H-pyrrol-2-yl]-3-oxo-2,3-dihydro-1H-pyrrol-2-yl]-3-hydroxy-1-phenylbutan-2-yl]carbamate] | 8.89
3 | CC(C)(C)NC(=O)[C@@H]1CCCCN1C[C@@H](O)[C@@H]1Cc2ccc(cc2)OCCCC(=O)N[C@@H](CC(N)=O)C(=O)N1 [Peptidomimetic inhibitor 4] | 9.22
